# Measured values published in ChEMBL document CHEMBL1201862, “PubChem BioAssay data set” (2004).
#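 Cells were grown in 96-well plates and exposed to each compound for 48 hours at five concentrations; endpoints were interpolated linearly between bracketing concentrations, or set to the highest concentration if not reached. The concentration for 50% growth inhibition is given as GI50.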 Active and inactive are the calls of the source. Rule as the data show it: active = GI50 up to about 1.1 µM and inactive = higher.
# What was measured:
# Assay in all cases: NCI-60 cell line screen, 48 h
# [1] = test system: 786-0
# [2] = test system: A498
# [3] = test system: A549
# [4] = test system: ACHN
# [5] = test system: BT-549
# [6] = test system: CAKI-1
# [7] = test system: CCRF-CEM
# [8] = test system: COLO 205
# [9] = test system: DU-145
# [10] = test system: EKVX
# [11] = test system: HCC 2998
# [12] = test system: HCT-116
# [13] = test system: HCT-15
# [14] = test system: HL-60
# [15] = test system: HOP-62
# [16] = test system: HOP-92
# [17] = test system: HT-29
# [18] = test system: Hs-578T
# [19] = test system: IGROV-1
# [20] = test system: K562
# [21] = test system: KM12
# [22] = test system: LOX IMVI
# [23] = test system: M14
# [24] = test system: MCF7
# [25] = test system: MDA-MB-231
# [26] = test system: MDA-MB-435
# [27] = test system: MDA-N
# [28] = test system: MOLT-4
# [29] = test system: Malme-3M
# [30] = test system: NCI-H226
# [31] = test system: NCI-H23
# [32] = test system: NCI-H460
# [33] = test system: NCI-H522
# [34] = test system: NCI/ADR-RES
# [35] = test system: OVCAR-3
# [36] = test system: OVCAR-4
# [37] = test system: OVCAR-5
# [38] = test system: OVCAR-8
# [39] = test system: PC-3
# [40] = test system: RPMI-8226
# [41] = test system: RXF 393
# [42] = test system: SF-268
# [43] = test system: SF-295
# [44] = test system: SF-539
# [45] = test system: SK-MEL-28
# [46] = test system: SK-MEL-2
# [47] = test system: SK-MEL-5
# [48] = test system: SK-OV-3
# [49] = test system: SN12C
# [50] = test system: SNB-19
# [51] = test system: SNB-75
# [52] = test system: SR
# [53] = test system: SW-620
# [54] = test system: T47D
# [55] = test system: TK-10
# [56] = test system: U-251
# [57] = test system: UACC-257
# [58] = test system: UACC-62
# [59] = test system: UO-31
smiles,measurement,setting,value
CCNC(=S)N/N=C(/C)c1cccc(/C(C)=N\NC(=S)NCC)n1,GI50,[1],1.5 µM (inactive)
same,GI50,[2],7.52 µM (inactive)
same,GI50,[3],0.719 µM (active)
same,GI50,[4],0.562 µM (active)
same,GI50,[5],10.4 µM (inactive)
same,GI50,[6],1.23 µM (inactive)
same,GI50,[7],0.303 µM (active)
same,GI50,[8],1.08 µM (active)
same,GI50,[9],1.35 µM (inactive)
same,GI50,[10],1.11 µM (active)
same,GI50,[11],3.56 µM (inactive)
same,GI50,[12],0.367 µM (active)
same,GI50,[13],0.493 µM
same,GI50,[14],0.57 µM (active)
same,GI50,[15],1.11 µM (active)
same,GI50,[16],1.69 µM (inactive)
same,GI50,[17],0.315 µM (active)
same,GI50,[18],13.8 µM (inactive)
same,GI50,[19],1.24 µM (inactive)
same,GI50,[20],1.13 µM (inactive)
same,GI50,[21],0.593 µM (active)
same,GI50,[22],0.373 µM (active)
same,GI50,[23],1.2 µM (inactive)
same,GI50,[24],0.689 µM (active)
same,GI50,[25],2.32 µM (inactive)
same,GI50,[26],2.82 µM (inactive)
same,GI50,[27],1.23 µM (inactive)
same,GI50,[28],0.365 µM (active)
same,GI50,[29],2.44 µM (inactive)
same,GI50,[30],0.333 µM (active)
same,GI50,[31],4.06 µM (inactive)
same,GI50,[32],0.31 µM (active)
same,GI50,[33],1.15 µM (inactive)
same,GI50,[34],0.748 µM (active)
same,GI50,[35],0.366 µM (active)
same,GI50,[36],2.14 µM (inactive)
same,GI50,[37],0.873 µM (active)
same,GI50,[38],0.345 µM (active)
same,GI50,[39],0.614 µM (active)
same,GI50,[40],0.847 µM (active)
same,GI50,[41],3.44 µM (inactive)
same,GI50,[42],0.59 µM (active)
same,GI50,[43],0.488 µM (active)
same,GI50,[44],1.27 µM (inactive)
same,GI50,[45],2.38 µM (inactive)
same,GI50,[46],3.9 µM (inactive)
same,GI50,[47],0.774 µM (active)
same,GI50,[48],2.63 µM (inactive)
same,GI50,[49],1.46 µM (inactive)
same,GI50,[50],5.48 µM (inactive)
same,GI50,[51],14.9 µM (inactive)
same,GI50,[52],0.184 µM (active)
same,GI50,[53],0.486 µM (active)
same,GI50,[54],2.72 µM (inactive)
same,GI50,[55],0.771 µM (active)
same,GI50,[56],0.553 µM (active)
same,GI50,[57],4.16 µM (inactive)
same,GI50,[58],1.09 µM (active)
same,GI50,[59],0.968 µM (active)
COC(Cc1ccccc1)NC(C)=O (stereo not drawn),GI50,[1],> 100 µM (inactive)
same,GI50,[2],> 100 µM (inactive)
same,GI50,[3],> 100 µM (inactive)
same,GI50,[4],> 100 µM (inactive)
same,GI50,[5],> 100 µM (inactive)
same,GI50,[6],> 100 µM (inactive)
same,GI50,[7],> 100 µM (inactive)
same,GI50,[8],> 100 µM (inactive)
same,GI50,[9],> 100 µM (inactive)
same,GI50,[10],> 100 µM (inactive)
same,GI50,[11],> 100 µM (inactive)
same,GI50,[12],> 100 µM (inactive)
same,GI50,[13],> 100 µM
same,GI50,[14],> 100 µM (inactive)
same,GI50,[15],> 100 µM (inactive)
same,GI50,[16],> 100 µM (inactive)
same,GI50,[17],> 100 µM (inactive)
same,GI50,[18],> 100 µM (inactive)
same,GI50,[19],> 100 µM (inactive)
same,GI50,[20],> 100 µM (inactive)
same,GI50,[21],> 100 µM (inactive)
same,GI50,[22],> 100 µM (inactive)
same,GI50,[23],> 100 µM (inactive)
same,GI50,[24],> 100 µM (inactive)
same,GI50,[25],> 100 µM (inactive)
same,GI50,[26],> 100 µM (inactive)
same,GI50,[27],> 100 µM (inactive)
same,GI50,[28],> 100 µM (inactive)
same,GI50,[29],> 100 µM (inactive)
same,GI50,[30],> 100 µM (inactive)
same,GI50,[31],> 100 µM (inactive)
same,GI50,[32],> 100 µM (inactive)
same,GI50,[33],> 100 µM (inactive)
same,GI50,[34],> 100 µM (inactive)
same,GI50,[35],> 100 µM (inactive)
same,GI50,[36],> 100 µM (inactive)
same,GI50,[37],> 100 µM (inactive)
same,GI50,[38],> 100 µM (inactive)
same,GI50,[39],> 100 µM (inactive)
same,GI50,[40],> 100 µM (inactive)
same,GI50,[41],> 100 µM (inactive)
same,GI50,[42],> 100 µM (inactive)
same,GI50,[43],> 100 µM (inactive)
same,GI50,[44],> 100 µM (inactive)
same,GI50,[45],> 100 µM (inactive)
same,GI50,[46],> 100 µM (inactive)
same,GI50,[47],> 100 µM (inactive)
same,GI50,[48],> 100 µM (inactive)
same,GI50,[49],> 100 µM (inactive)
same,GI50,[50],> 100 µM (inactive)
same,GI50,[51],> 100 µM (inactive)
same,GI50,[52],> 100 µM (inactive)
same,GI50,[53],> 100 µM (inactive)
same,GI50,[54],> 100 µM (inactive)
same,GI50,[55],> 100 µM (inactive)
same,GI50,[56],> 100 µM (inactive)
same,GI50,[57],> 100 µM (inactive)
same,GI50,[58],> 100 µM (inactive)
same,GI50,[59],> 100 µM (inactive)
